Experimental data published in PubChem BioAssay (NCI).
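Abbreviation: GI50, concentration required for 50% inhibition of growth. At the TGI there is no net growth.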

Assays:
Test in all cases: growth of human tumour cells (NCI), 384-well format
[1] = test system: 786-0 renal
[2] = test system: A498 renal
[3] = test system: A549 NSCLC
[4] = test system: ACHN renal
[5] = test system: CAKI-1 renal
[6] = test system: CCRF-CEM leukemia
[7] = test system: DU-145 prostate
[8] = test system: EKVX NSCLC
[9] = test system: HCC-2998 colon
[10] = test system: HCT-116 colon
[11] = test system: HCT-15 colon
[12] = test system: HL-60(TB) leukemia
[13] = test system: HOP-62 NSCLC
[14] = test system: HOP-92 NSCLC
[15] = test system: HS 578T breast
[16] = test system: IGROV1 ovarian
[17] = test system: K-562 leukemia
[18] = test system: KM12 colon
[19] = test system: LOX IMVI melanoma
[20] = test system: M14 melanoma
[21] = test system: MALME-3M melanoma
[22] = test system: MDA-MB-231 breast
[23] = test system: MOLT-4 leukemia
[24] = test system: NCI-H226 lung
[25] = test system: NCI-H23 lung
[26] = test system: NCI-H322M lung
[27] = test system: NCI-H460 NSCLC
[28] = test system: NCI/ADR-RES ovarian
[29] = test system: OVCAR-3 ovarian
[30] = test system: OVCAR-5 ovarian
[31] = test system: OVCAR-8 ovarian
[32] = test system: PC-3 prostate
[33] = test system: RPMI-8226 leukemia
[34] = test system: RXF 393 renal
[35] = test system: SF-539 CNS
[36] = test system: SK-MEL-2 melanoma
[37] = test system: SK-OV-3 ovarian
[38] = test system: SN12C renal
[39] = test system: SNB-75 CNS
[40] = test system: SR leukemia
[41] = test system: SW-620 colon
[42] = test system: T-47D breast
[43] = test system: TK-10 renal
[44] = test system: U251 glioblastoma
[45] = test system: UACC-257 melanoma
[46] = test system: UACC-62 melanoma
[47] = test system: UO-31 renal

O=C(NCc1ccncc1)C12CC3CC(C1)CC(c1ccc(Cl)cc1)(C3)C2 was tested, and the GI50 [1] was 13.4 µM, the TGI [1] was 26.3 µM and the GI50 [2] was 12.7 µM. It also gave a TGI [2] of 25.5 µM, a GI50 [3] of 13.6 µM and a TGI [3] of 26.7 µM. The GI50 [4] was 15.1 µM, the TGI [4] was 28.6 µM and the GI50 [5] was 14.9 µM. It also gave a TGI [5] of 28.3 µM, a GI50 [6] of 6.92 µM and a TGI [6] of 17.6 µM. The GI50 [7] was 14.5 µM, the TGI [7] was 27.8 µM and the GI50 [8] was 13.2 µM. The TGI [8] was 26 µM, the GI50 [9] was 11.1 µM and the TGI [9] was 25.2 µM. The GI50 [10] was 9.03 µM, the TGI [10] was 22.7 µM and the GI50 [11] was 11.7 µM. For the same compound, the TGI [11] was 24.9 µM, the GI50 [12] was 2.75 µM and the TGI [12] was 6.12 µM. For the same compound, the GI50 [13] was 16.1 µM, the TGI [13] was 29.7 µM and the GI50 [14] was 10.8 µM. The TGI [14] was 23.1 µM, the GI50 [15] was 11.8 µM and the TGI [15] was 24.2 µM. It also gave a GI50 [16] of 12.1 µM, a TGI [16] of 24.6 µM and a GI50 [17] of 4.94 µM. For the same compound, the TGI [17] was 16.3 µM, the GI50 [18] was 13.1 µM and the TGI [18] was 25.9 µM. The GI50 [19] was 15.9 µM, the TGI [19] was 29.6 µM and the GI50 [20] was 17.8 µM. It also gave a TGI [20] of 31.7 µM, a GI50 [21] of 15.6 µM and a TGI [21] of 29.1 µM. For the same compound, the GI50 [22] was 11.1 µM, the TGI [22] was 23.5 µM and the GI50 [23] was 4.37 µM. The TGI [23] was 14.7 µM, the GI50 [24] was 14.4 µM and the TGI [24] was 27.6 µM. The GI50 [25] was 11.9 µM, the TGI [25] was 24.6 µM and the GI50 [26] was 17.5 µM. The TGI [26] was 31.5 µM, the GI50 [27] was 12.7 µM and the TGI [27] was 25.9 µM. The GI50 [28] was 9.62 µM, the TGI [28] was 21.8 µM and the GI50 [29] was 10.8 µM. The TGI [29] was 23.7 µM, the GI50 [30] was 18 µM and the TGI [30] was 31.9 µM. It also gave a GI50 [31] of 13 µM, a TGI [31] of 25.9 µM and a GI50 [32] of 8.88 µM. The TGI [32] was 21.7 µM, the GI50 [33] was 3.59 µM and the TGI [33] was 9.73 µM. For the same compound, the GI50 [34] was 7.13 µM, the TGI [34] was 20 µM and the GI50 [35] was 16 µM. For the same compound, the TGI [35] was 29.7 µM, the GI50 [36] was 13 µM and the TGI [36] was 25.7 µM. For the same compound, the GI50 [37] was 16 µM, the TGI [37] was 29.6 µM and the GI50 [38] was 14.4 µM. For the same compound, the TGI [38] was 27.5 µM, the GI50 [39] was 15 µM and the TGI [39] was 28.3 µM. For the same compound, the GI50 [40] was 5.05 µM, the TGI [40] was 9.66 µM and the GI50 [41] was 13.7 µM. The TGI [41] was 26.8 µM, the GI50 [42] was 9.72 µM and the TGI [42] was 23 µM. The GI50 [43] was 14.2 µM, the TGI [43] was 27.4 µM and the GI50 [44] was 15.3 µM. It also gave a TGI [44] of 28.8 µM, a GI50 [45] of 13.7 µM and a TGI [45] of 26.7 µM. For the same compound, the GI50 [46] was 14 µM, the TGI [46] was 27.1 µM and the GI50 [47] was 11.9 µM. The TGI [47] was 24.4 µM.
